Data: ChEMBL document CHEMBL1126813, “Phenyl-substituted prostaglandins: potent and selective antiglaucoma agents” (J Med Chem, 1993)

Legend:
Monkey = assay: Maximum reduction of the intraocular pressure in normotensive monkeys after topical administration of 3 ug of the compound; assay type: functional, Cercopithecidae, Eye
Felis catus [1] = assay: Maximum irritation of cat eyes after topical administration of 3 ug of the compound; assay type: functional
Felis catus [2] = assay: Maximum irritation of cat eyes after topical administration of 5 ug of the compound; assay type: functional
Felis catus [3] = organism: Felis catus; assay: Compound concentration which had a contractile effect on iris sphincter muscle of cats; assay type: functional

Row | EC50 (Felis catus [3]) | Compound | Reduction of IOP (Monkey) | Irritation of eyes (Felis catus [1]) | Irritation of eyes (Felis catus [2])
1 |  | CCCCC[C@H](O)CC[C@@H]1[C@@H](C/C=C\CCCC(=O)OC(C)C)[C@@H](O)C[C@H]1O | 2.5 mmHg | 2.5 arbitrary units | 
2 |  | CC(C)OC(=O)CCC/C=C\C[C@@H]1[C@@H](CC[C@@H](O)CCc2ccccc2)[C@H](O)C[C@@H]1O [LATANOPROST] | 2.6 mmHg | 0 arbitrary units | 
3 |  | CC(C)OC(=O)CCC/C=C\C[C@@H]1[C@@H](CC[C@H](O)CCc2ccccc2)[C@H](O)C[C@@H]1O | 1 mmHg | 0 arbitrary units | 
4 |  | CCCCC[C@@H](O)CC[C@@H]1[C@@H](C/C=C\CCCC(=O)OC(C)C)[C@@H](O)C[C@H]1O | 0.7 mmHg | 2.3 arbitrary units | 
5 |  | CC(C)OC(=O)CCC/C=C\C[C@@H]1[C@@H](/C=C/[C@@H](O)CCc2ccccc2)[C@H](O)C[C@@H]1O | 2.9 mmHg |  | 0.2 arbitrary units
6 |  | CC(C)OC(=O)CCC/C=C\C[C@@H]1[C@@H](/C=C/[C@H](O)CCc2ccccc2)[C@H](O)C[C@@H]1O | 1.9 mmHg |  | 0 arbitrary units
7 | 0.71 nM | O=C(O)CCC/C=C\C[C@@H]1[C@@H](CC[C@@H](O)CCc2ccccc2)[C@H](O)C[C@@H]1O [LATANOPROST ACID] |  |  | 
